One test has as its system Enterococcus. Kind of test: Antibacterial activity vancomycin-resistant Enterococcus assessed as inhibition of bacterial growth incubated for 24 hrs by CLSI based analysis. Type of test: functional.
The test system of test [1] is Staphylococcus aureus. Kind of test: Antibacterial activity methicillin-resistant Staphylococcus aureus 003 assessed as inhibition of bacterial growth incubated for 24 hrs by CLSI based analysis. Type of test: functional.
The subject of test [2] is Staphylococcus aureus. Kind of test: Antibacterial activity Staphylococcus aureus assessed as inhibition of bacterial growth incubated for 24 hrs by CLSI based analysis. Format: functional.
Test [3] deals with Staphylococcus aureus. Kind of test: Antibacterial activity methicillin-resistant Staphylococcus aureus 011 assessed as inhibition of bacterial growth incubated for 24 hrs by CLSI based analysis. Format: functional.
In a further test the test system is Acinetobacter baumannii. In words: Antibacterial activity Acinetobacter baumannii assessed as inhibition of bacterial growth incubated for 24 hrs by CLSI based analysis. Format: functional.
The next test relates to Escherichia coli. Kind of test: Antibacterial activity Escherichia coli assessed as inhibition of bacterial growth incubated for 24 hrs by CLSI based analysis. Format: functional.
The test system of test [4] is Staphylococcus aureus. Kind of test: Antibacterial activity methicillin-resistant Staphylococcus aureus 003 assessed as inhibition of H2S production at 50 uM. Type of test: functional.
For test [5], the system named is Staphylococcus aureus. In words: Bactericidal activity against Staphylococcus aureus at 4 times MIC measured after 24 hrs by time kill assay. Type of test: functional, organism-based.
In test [6] the test system is Staphylococcus aureus. In words: In vivo antibacterial activity against methicilin-resistant Staphylococcus aureus infected in ICR mouse skin infection model assessed as wound area at 40 mg/kg, ip preadministered with compound for 24 hrs followed by bacterial infection and measured after 3 days. Type of test: functional. As to conditions: time 96 hrs.
For test [7], the system named is Staphylococcus aureus. In words: Bactericidal activity against methicilin-resistant Staphylococcus aureus 003 at 4 times MIC measured after 24 hrs by time kill assay. Type of test: functional, organism-based.

Structures are written as SMILES. ≈ marks a conversion by molar mass, not a printed value. Calls of active or inactive are those of the source. The calls are words filed in the database; no cut-off is given here.

For `COc1cccc(OC)c1C(=O)N[C@@H]1C(=O)N2[C@@H]1SC(C)(C)[C@@H]2C(=O)[O-].[Na+]`, the MIC with Enterococcus was 32 µg/mL; in the test with Staphylococcus aureus [1], more than 128 µg/mL; in the test with Staphylococcus aureus [2], 1 µg/mL; in the test with Staphylococcus aureus [3], more than 128 µg/mL.

Regarding `CC(C)CCCCC(=O)N[C@@H](CCN)C(=O)N[C@H](C(=O)N[C@@H](CCN)C(=O)N[C@H]1CCNC(=O)[C@H]([C@@H](C)O)NC(=O)[C@H](CCN)NC(=O)[C@H](CCN)NC(=O)[C@H](CC(C)C)NC(=O)[C@@H](Cc2ccccc2)NC(=O)[C@@H](CCN)NC1=O)[C@@H](C)O.O=S(=O)(O)O`, the MIC with Enterococcus was found to be 128 µg/mL; in the test on Staphylococcus aureus [1], 16 µg/mL; in the test with Acinetobacter baumannii, 1 µg/mL; in the test with Staphylococcus aureus [2], 8 µg/mL; with Escherichia coli, 0.25 µg/mL; in the test with Staphylococcus aureus [3], 16 µg/mL.

Consider `NOCC(=O)O` [CARBOXYMETHOXYLAMINE], for which, in the test with Staphylococcus aureus [4], the inhibition at 50 µM came out at 30%.

`CO[C@@]1(NC(=O)Cc2cccs2)C(=O)N2C(C(=O)O)=C(COC(N)=O)CS[C@@H]21` [CEFOXITIN]: the MIC was more than 128 µg/mL in the test with Enterococcus, more than 128 µg/mL in the test on Staphylococcus aureus [1], 2 µg/mL (≈ 4.68 µM) with Staphylococcus aureus [2] and more than 128 µg/mL in the test on Staphylococcus aureus [3]. For the same molecule, the outcome in the test on Staphylococcus aureus [5] and in the test with Staphylococcus aureus [7] was inactive. In addition, in the test with Staphylococcus aureus [6], the Activity came to 0.28 cm2.

For the origin of these results see ChEMBL document CHEMBL5356966, “A dual mechanism with H2S inhibition and membrane damage of morusin from Morus alba Linn. against MDR-MRSA” (2024).
